# Assay results reported in US9618453B2, “Aggregation induced emission of fluorescent bioprobes and methods of using the same” (THE HONG KONG UNIVERSITY OF SCIENCE AND TECHNOLOGY, priority 2011, dated 2017).
# What was measured:
# [1] = biological target: bovine serum albumin (BSA) (Bos taurus, UniProt P02769); assay: Fluorescence labeling of BSA with TPE-SO3 in phosphate buffer; details: BSA 5 μM, pH 7.0
# Method: Fluorescence labeling was carried out by sequentially adding solutions of TPE-SO3 to 100 μL aliquots of BSA solutions. The mixtures were stirred for half an hour prior to taking their spectra.
# The PL peak intensities of the BSA prepared with the lowest concentrations of TPE-SO3 were used as the reference and plots of the normalized fluorescence versus the concentrations of TPE-SO3 were obtained (FIG. 22). […] TPE-SO3 is represented by the following chemical formula: […]
# [2] = Fluorescence quantum efficiency in the solid state; type: physicochemical
# Excerpt: (§1) Tetrahydrofuran (THF; Labscan) was distilled under nitrogen from sodium benzophenone ketyl immediately prior to use. Acrylamide was purchased from Bio-Rad. Aminoallyl-dUTP (aa-dUTP), dNTPs, DNase I (RNase-free), DNA Polymerase I, Klenow Fragment exo-, Random Hexamer Primer, Long PCR Enzyme Mix and GeneJET™ PCR Purification Kit, GeneRuler™ 100 bp Plus DNA Ladder (ready-to-use, 100-3000 bp), 6×DNA Loading Dye were purchased from Fermentas (Thermo Scientific). Deep VentR™ exo-DNA Polymerase was purchased from New England Biolabs (NEB). Synthesized oligonucleotides (primers) were purchased from Tech Drogon Limited. GelRed™ Nucleic Acid Gel Stain (10000× in water) was purchased from Biotium. Other chemicals, reagents and solvents were all purchased from Aldrich or Invitrogen. ^1H and ^13C NMR spectra were measured on a Bruker ARX 400 NMR spectrometer using CDCl3 as solvent. High-resolution mass spectra (HRMS) were taken on a Finnigan TSQ 7000 triple quadrupole spectrometer in a MALDI-TOF mode. UV spectra were measured on a Milton Roy Spectronic 3000 Array spectrophotometer. Fluorescence (FL) spectra were recorded on a Perkin-Elmer LS 55 spectrofluorometer. FL quantum yields (ΦF) of amorphous powders of siloles were measured using C-701 Time-Resolved Spectrofluorometer with the integrating sphere as accessory.
# [3] = Quantum efficiency of TPEMBR before and after reaction with dithiothreitol (DTT); type: physicochemical; details: water/THF solution, water fraction 90 vol %
# Method: In addition to the enhancement of fluorescence because of its AIE property, TPEMBR becomes even more emissive through the reaction between its bromomethyl group and thiol group of proteins, presumably due to the elimination of the internal heavy atom effect of bromide. […] TPEMBR and DTT in equal amount were dissolved in THF to give a concentration of 10 μM for each component. The mixture was then incubated at room temperature overnight. Photoluminescence intensity and UV absorption of TPEMBR were measured in THF/water mixtures with a water fraction of 90 vol % before and after reacting with DTT. As shown in FIGS. 12a and 12b, the quantum efficiency of TPEMBR in the water/THF solution with a water fraction of 90 vol % was approximately 3 times higher after reacting with DTT.
# horse myoglobin (0 Cys) = horse myoglobin (0 Cys) (Equus caballus, UniProt P68082); assay: Fluorescent labeling of Cys residues of protein with TPEMBR, SDS-PAGE; details: 0.5 mM dye
# Sequence of horse myoglobin (0 Cys) (P68082 whole entry): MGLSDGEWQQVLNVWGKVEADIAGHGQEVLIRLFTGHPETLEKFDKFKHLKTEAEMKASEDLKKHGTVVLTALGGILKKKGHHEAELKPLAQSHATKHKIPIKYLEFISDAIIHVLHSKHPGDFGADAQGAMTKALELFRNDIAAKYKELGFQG
# Method: (§2) 2.5 μL Tris-HCl (1 M), 2.5 μL TCEP (20 mM), 5 μL BSA (1 mg/mL, 15 μM), and 30 μL urea (8 M in water) was added to a 1.5 mL Eppendorf tube and mixed well. The mixture was incubated at room temperature for 30 min to pre-reduce the disulfide bonds with TCEP. Then, 10 μL of the TPEMBR DMSO stock solution (2.5 mM 5×) was added to the system and made the final volume 50 μL. The reaction mixture was incubated for 3 hours at 50° C. in an Eppendorf Thermomixer. Then, samples were cooled either to room temperature for instant use or frozen for eventual use.
# (§3) Specific labeling of Cys residues by TPEMBR was examined through the labeling of proteins with different Cys contents. BSA (35 Cys), yeast enolase (single Cys) and horse myoglobin (0 Cys) were labeled with 0.5 mM of TPEMBR, respectively. The corresponding fluorescent products were analyzed on gel. […] The results further confirmed the specificity of TPEMBR to Cys residue when the working concentration of 0.5 mM was used.
# BSA (35 Cys) = BSA (35 Cys) (Bos taurus, UniProt P02769); assay: as above; set-up: species or system bovine
# Sequence of BSA (35 Cys) (P02769 25-607): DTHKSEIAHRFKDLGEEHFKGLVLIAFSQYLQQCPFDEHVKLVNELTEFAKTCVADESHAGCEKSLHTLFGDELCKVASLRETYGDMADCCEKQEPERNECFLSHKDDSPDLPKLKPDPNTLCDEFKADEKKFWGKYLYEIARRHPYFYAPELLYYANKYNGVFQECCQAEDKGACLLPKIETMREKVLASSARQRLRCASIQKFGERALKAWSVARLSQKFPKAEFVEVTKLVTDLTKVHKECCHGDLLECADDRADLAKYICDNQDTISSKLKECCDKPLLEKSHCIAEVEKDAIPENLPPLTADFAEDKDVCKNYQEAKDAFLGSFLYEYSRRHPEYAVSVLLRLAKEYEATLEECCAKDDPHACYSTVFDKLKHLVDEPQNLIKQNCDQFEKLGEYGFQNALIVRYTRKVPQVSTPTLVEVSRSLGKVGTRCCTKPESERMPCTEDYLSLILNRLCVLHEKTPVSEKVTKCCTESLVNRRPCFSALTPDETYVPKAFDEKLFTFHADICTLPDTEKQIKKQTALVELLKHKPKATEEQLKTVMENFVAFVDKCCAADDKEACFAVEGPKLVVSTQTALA
# Method: as §2
# In order to ensure that the Cys residues were sufficiently labeled with TPEMBR, a longer reaction time (usually overnight) at or below room temperature was required. Alternatively, the reaction time could be reduced if labeling was carried out at 50° C. To verify the time-dependence of labeling efficiency, bovine serum albumin (BSA) samples were labeled with TPEMBR for different times ranging from 10 min to 4 h and analyzed by SDS-PAGE. The fluorescence intensity of the labeled BSA increased as the reaction time was extended. The maximum intensity under specific labeling conditions was observed after 3 h and remained unchanged even with an additional 1 h of reaction time (FIGS. 11a and 11b). […] The time-dependent labeling effect provides a way to determine the desirable DOL according to different applications by simply controlling the labeling time. Meanwhile, a lower temperature labeling process with a longer reaction time could be a better choice to obtain fluorescent proteins while maintaining their native structures.
# BSA samples were subjected to labeling with different dye concentrations. The SDS-PAGE fluorescence intensity of labeled BSA increased with increasing dye concentration. […] Further increasing the dye concentration could give higher fluorescence intensity due to nonspecific labeling. Clearly, the DOL of protein samples can be controlled by varying the dye concentration.
# as §3
# BSA was labeled by each dye with a series of varying dye/thiol ratios. After the electrophoresis, the gel fluorescent image was taken under UV excitation and the fluorescence intensity was obtained from three independent experiments. Fluorescence intensities normalized with the sample with the lowest dye concentration are plotted versus the dye/thiol ratio (FIG. 16). […] This self-quenching effect is inevitable for self-quenching dyes such as 5-BMF and limits these dyes' application on quantification of proteins. In contrast, detection and quantification of proteins with high contents of Cys can be easily achieved by using AIE active molecules such as TPEMBR.
# [4] = Photoluminescence in THF/water mixtures with different water fractions (aggregation induced emission); type: physicochemical; details: water/THF solution, water fraction 90 vol %
# Excerpt: The AIE of TPENCS is illustrated in FIG. 1. […] With water content ranging from 0-70%, the fluorescence intensity remained at a very low level. When the water concentration was in the 80-90 vol % range, a rapid and dramatic increase of the fluorescence intensity with increasing water content was observed (FIG. 1b). The PL intensity of TPENCS in the water/THF solution with a water fraction of 90 vol % was approximately 50-fold higher than that in the mixture with 70% water. The quantum efficiency of TPENCS was 52.2% in the solid state.
# Similar to other AIE active molecules, TPEMBR only gave weak emission in good solvents such as THF. […] To quantify the effect of water content on the degree of fluorescent emission enhancement, the photoluminescence intensity of TPEMBR was measured where the fraction of water was increased from 0 to 90 vol %. With the water content in the range of 0-70%, the fluorescent intensity remained at a very low level. With the water fraction reaching the 80-90 vol % range, a rapid and dramatic increase of the fluorescent intensity was observed (FIG. 9b). The photoluminescence intensity of TPEMBR in the water/THF solution with a water fraction of 90 vol % was approximately 50-fold stronger than that in the mixture with 70% water. In the solid state, the quantum efficiency of TPEMBR was determined to be 31.7%.
# The AIE of SITC is illustrated in FIGS. 17a and 17b. The wavelength at maximum absorption of SITC was at 363 nm and the emission maximum was at 490 nm. […] To quantify the effect of water content on the elevation of the fluorescent emission, the photoluminescence intensity of SITC was measured with concentration of water increasing from 0 to 90 vol %. With water content ranging from 0-70%, the fluorescent intensity remained at a very low level. When the water concentration was in the 80-95 vol % range, a rapid and dramatic increase of the fluorescent intensity with increasing water content was observed (FIG. 17b). The photoluminescence intensity of SITC in the water/THF solution with a water fraction of 95 vol % was approximately 50-fold higher than that in the mixture with 70% water. The quantum efficiency of SITC was 45.8% in the solid state.
# as §1
# Structure of dye is confirmed by standard spectroscopic methods (FIGS. 23, 26a, and 27a). In order to confirm TPEITC is AIE-active, we investigated its fluorescence in THF/water mixtures with different water fractions. […] TPEITC molecules with hydrophobic aromatic cores precipitated and became aggregate in the nonsolvent mixture. Aggregation blocks the nonradiative relaxation channels and populates the radiative decay, thus resulting in high luminescence. […]
# Sequence of bovine serum albumin (BSA) (P02769 25-607): as above
SMILES,fluorescence intensity of labeled BSA versus dye concentration [1],quantum efficiency [2] [%],quantum efficiency after reacting with DTT relative to before [3],emission of labeled protein on gel (horse myoglobin (0 Cys)),emission of labeled protein on gel (BSA (35 Cys); 0.5 mM dye),dye concentration at which maximum intensity was reached (BSA (35 Cys); SDS-PAGE fluorescence intensity of labeled BSA) [mM],"labeling time to maximum fluorescence intensity (BSA (35 Cys); labeling at 50° C., 10 min to 4 h) [h]",self-quenching effect versus dye/thiol ratio (BSA (35 Cys); series of dye/thiol ratios),PL intensity relative to the mixture with 70% water [4]
O=S(=O)([O-])CCCOc1ccc(C(=C(c2ccccc2)c2ccc(OCCCS(=O)(=O)[O-])cc2)c2ccccc2)cc1.[Na+].[Na+] (mixture of isomers) [TPE-SO3],increased continuously,–,–,–,–,–,–,–,–
BrCc1ccc(C(=C(c2ccccc2)c2ccccc2)c2ccccc2)cc1 [TPEMBR],–,31.7,approximately 3 times,no fluorescence at all,much higher emission than yeast enolase,≥ 0.5,3,kept on increasing,approximately 50 fold
